Tests used:
Type in all cases: in vivo, Solanum lycopersicum
[1] = test system: exodermal lignin cap (apoplastic barrier) of tomato root; test: Apoplastic tracer assay with propidium iodide (PI); details: 200 μM PA 24 hours, then PI 30 minutes
Description: Seeds of M82 were grown in 1% MS+1% sucrose. Four days after germination, plants were transferred to new MS square plates with/without 200 μM of piperonylic acid (Sigma P49805-5G) and 200 μM piperonylic acid plus 10 mM monolignols (Sigma Aldrich 223735-100MG,404586-100MG) for 24 hours in the dark, with DMSO as the solvent. […] The roots were washed in water and one cm segments from the root tip were embedded in 3% agarose and made sections of 150-200 μM using a vibratome (Leica VT1000 S). Confocal Laser Scanning microscopy was performed on a Zeiss LSM700 confocal with the 20× objective, at 405 nm excitation and 600-650 nm detection.

tomato root = test: Root growth after 24 h piperonylic acid treatment; details: 200 μM PA, 4-day-old plants, newly grown root zone after transfer
Description: FIG. 7A-B (also referred to as Supplemental FIG. 2 in technical section). […] A. Schematic representation of the experimental design to test the PA. 4-day-old plants after germination were transferred to MS media+1% sucrose with and without 200 μM of PA. After 24 hours, root growth was measured for the part of the root that grew after transferring. Orange horizontal bar=newly grown root after transferring. B. Root growth after 24H in control and PA treatment for the newly root zone after transferring (statistical significance test determined by ANOVA p-value 0.05).
Seeds of M82 were grown in 1% MS+1% sucrose. Four days after germination, plants were transferred to new MS square plates with/without 200 μM of piperonylic acid (Sigma P49805-5G) and 200 μM piperonylic acid plus 10 mM monolignols (Sigma Aldrich 223735-100MG,404586-100MG) for 24 hours in the dark, with DMSO as the solvent. Three cm segments from the root tip including the root meristem were exposed to 15 μg/mL PI (P4170; Sigma) in the dark at 30° C. for 1 h. The roots were washed in water and one cm segments from the root tip were embedded in 3% agarose and made sections of 150-200 μM using a vibratome (Leica VT1000 S). Confocal Laser Scanning microscopy was performed on a Zeiss LSM700 confocal with the 20× objective, at 405 nm excitation and 600-650 nm detection.

[2] = test system: root lignin biosynthesis within the endodermis and exodermis; test: Root lignin deposition (basic fuchsin staining) after PA treatment; details: 200 μM PA, 24 hours
Description: For root sections stained with basic fuchsin (Fisher scientific Cat no 632-99-5) and calcofluor white (PhytoTechnology laboratories Cat no 4404-43-7), 1 cm segments from the root tip were embedded in 3% agarose and were sectioned at 150-200 μM using a vibratome (Leica VT1000 S). The sections were stained in Clearsee buffer (Ursache et al. 2018) with basic fuchsin for 30 minutes then washed two times. In some cases, the sections were stained with calcofluor after basic fuchsin for 30 minutes and washed two times. Confocal Laser Scanning microscopy was performed on a Zeiss LSM700 confocal with the 20× objective, basic fuchsin: 550-561 nm excitation and 570-650 nm detection. Root samples were mounted in ClearSee (Ursache et al., 2018) and scanned and imaged on a Zeiss Observer Z1 with the 20× or 40× objective, basic fuchsin: 550-561 nm excitation and 570-650 nm detection and calcofluor white: 405 nm excitation and 425-475 nm detection.
Seeds of M82 were grown in 1% MS+1% sucrose. Four days after germination, plants were transferred to new MS square plates with/without 200 μM of piperonylic acid (Sigma P49805-5G) and 200 μM piperonylic acid plus 10 mM monolignols (Sigma Aldrich 223735-100MG,404586-100MG) for 24 hours in the dark, with DMSO as the solvent. […]

What does the source list for O=C(O)c1ccc2c(c1)OCO2 [PA, Piperonylic acid]?
PI penetration into cortex cells [1]: Pt was observed after exposure within cortex cells; PI signal in the exodermal lignin cap (PI blockage) ([1]; control versus PA-treated): more intense in control relative to PA-treated plants; root growth (tomato root): does not interfere with root growth; root growth (tomato root; listed as Piperonylic acid): does not affect root growth; root lignin biosynthesis within the endodermis and exodermis [2]: does disrupt root lignin biosynthesis

Source: patent US20260103721A1, “GENES CONTROLLING BARRIER FORMATION IN ROOTS” (The Regents of the University of California, priority 2022, published 2026)
